Where two headings read alike, the source gives them in different places.
Tests used:
[1] = target: T1, GT1a D168A NS3/4A protease (UniProt P27958, C1185S/D1194A, species not given); type: biochemical, Hepatitis C virus; conditions: read-out: Ki (nM) GT1a D168A NS3/4A Protease
T1 construct: Ki (nM) GT1a D168A NS3/4A Protease
Procedure: (§1) For each assay, 2 nM of NS3/4A protease (GT1, D168A and GT3) was pre-incubated at room temperature for 1 h with increasing concentration of inhibitors in assay buffer [50 mM Tris, 5% glycerol, 10 mM DTT, 0.6 mM LDAO, and 4% dimethyl sulfoxide]. Inhibition assays were performed in nonbinding surface 96-well black half-area plates (Corning) in a reaction volume of 60 μt. […] Three independent data sets were collected for each inhibitor with each protease construct.
as §1, with “(GT1a” for “(GT1, D168A”, “D168A)” for “GT3)”, “(50” for “[50”, “sulfoxide, pH 7.5).” for “sulfoxide].”, “non-binding” for “nonbinding”, “μL.” for “μt.”
(§2) For each assay, 2 nM of NS3/4A protease (GT1a, R155K and D168A) was pre-incubated at room temperature for 1 h with increasing concentration of inhibitors in assay buffer (50 mM Tris, 5% glycerol, 10 mM DTT, 0.6 mM LDAO, and 4% dimethyl sulfoxide, pH 7.5). Inhibition assays were performed in non-binding surface 96-well black half-area plates (Corning) in a reaction volume of 60 μL. […] Three independent data sets were collected for each inhibitor with each protease construct. […] Gibbs free energy of binding was calculated using the following equation: ΔG=RTlnKi

[2] = target: GT1a D168A NS3/4A protease; type: biochemical, Hepatitis C virus; conditions: Table 3; Ki D168A relative to GT1a WT
Procedure: as §1
(§3) For each assay, 2 nM of NS3/4A protease (GT1a and D168A) was pre-incubated at room temperature for 1 h with increasing concentration of inhibitors in assay buffer (50 mM Tris, 5% glycerol, 10 mM DTT, 0.6 mM LDAO, and 4% dimethyl sulfoxide, pH 7.5). Inhibition assays were performed in non-binding surface 96-well black half-area plates (Corning) in a reaction volume of 60 μL. […] Three independent data sets were collected for each inhibitor with each protease construct.
as §2

[3] = target: T2, wild-type GT1a NS3/4A protease (UniProt P27958, C1185S, species not given); type: biochemical, Hepatitis C virus; conditions: read-out: Ki (nM) GT1a WT NS3/4A Protease
T2 construct: Ki (nM) GT1a WT NS3/4A Protease
Procedure: as §1, §3, §2

[4] = system: HCV replicon D168V variant in Huh7 cells; test: microbe, parasite or virus in culture; type: cell-based, Hepatitis C virus; conditions: for EC50: Hepatitis C virus; for Replicon EC50 (Fold change) D168V: Table 4, relative to WT replicon
Procedure: (§4) Mutations (R155K, A516T, D168A and D168V) were constructed by site-directed mutagenesis using a Con1 (genotype 1b) luciferase reporter replicon containing the H77 (genotype 1a) NS3 sequence.
Replicon RNA of each protease variant was introduced into Huh7 cells by electroporation. Replication was then assessed in the presence of increasing concentrations of protease inhibitors by measuring luciferase activity (relative light units) 96 h after electroporation. […]

[5] = system: HCV replicon A156T variant in Huh7 cells; test: microbe, parasite or virus in culture; type: cell-based, Hepatitis C virus; conditions: for EC50: Hepatitis C virus; for Replicon EC50 (Fold change) A156T: Table 4, relative to WT replicon
Procedure: as §4
(§5) Replicon RNA of each protease variant was introduced into Huh7 cells by electroporation. Replication was then assessed in the presence of increasing concentrations of protease inhibitors by measuring luciferase activity (relative light units) 96 h after electroporation.
(§6) Mutations (R155K, D168A and A156T) were constructed by site-directed mutagenesis using a Con1 (genotype 1b) luciferase reporter replicon containing the H77 (genotype 1a) NS3 sequence.^6 Replicon RNA of each protease variant was introduced into Huh7 cells by electroporation. Replication was then assessed in the presence of increasing concentrations of protease inhibitors by measuring luciferase activity (relative light units) 96 h after electroporation.

[6] = system: HCV replicon R155K variant in Huh7 cells; test: microbe, parasite or virus in culture; type: cell-based, Hepatitis C virus; conditions: for EC50: Hepatitis C virus; for Replicon EC50 (Fold change) R155K: Table 4, relative to WT replicon
Procedure: as §4, §5, §6

[7] = system: HCV replicon D168A variant in Huh7 cells; test: microbe, parasite or virus in culture; type: cell-based, Hepatitis C virus; conditions: for EC50: Hepatitis C virus; for Replicon EC50 (Fold change) D168A: Table 4, relative to WT replicon
Procedure: as §4, §5, §6

[8] = target: T3, GT3a NS3/4A protease (Hepatitis C virus genotype 3a, UniProt Q81495); test: biochemical; conditions: for Ki (Fold change) GT3a NS3/4A Protease: Table 3, Ki GT3a relative to GT1a WT
T3 construct: drug-resistant variant D168A, and GT3a NS3/4A protease; made in house; host or cells: Escherichia coli BL21(DE3)
Procedure: as §1

[9] = system: wild-type HCV replicon in Huh7 cells; test: Cell-based drug susceptibility (replicon) assay, wild-type; conditions: Hepatitis C virus, read-out: Replicon EC50 (nM) WT
Procedure: as §4, §5, §6

[10] = Huh-7, 96 h, read-out: Replicon EC50 (nM) D168V, Table 2, Huh7 cells, luciferase 96 h
[11] = Huh-7, read-out: Replicon EC50 (nM) D168V, Table 4
[12] = Huh-7, 96 h, read-out: Replicon EC50 (nM) A156T, Table 2, Huh7 cells, luciferase 96 h
[13] = Huh-7, read-out: Replicon EC50 (nM) A156T, Table 4
[14] = Huh-7, 96 h, read-out: Replicon EC50 (nM) R155K, Table 2, Huh7 cells, luciferase 96 h
[15] = Huh-7, read-out: Replicon EC50 (nM) R155K, Table 4
[16] = Huh-7, 96 h, read-out: Replicon EC50 (nM) D168A, Table 2, Huh7 cells, luciferase 96 h
[17] = Huh-7, read-out: Replicon EC50 (nM) D168A, Table 4
[18] = Huh-7, 96 h, Table 2, Huh7 cells, luciferase 96 h

T3 sequence (Q81495 1033-1214): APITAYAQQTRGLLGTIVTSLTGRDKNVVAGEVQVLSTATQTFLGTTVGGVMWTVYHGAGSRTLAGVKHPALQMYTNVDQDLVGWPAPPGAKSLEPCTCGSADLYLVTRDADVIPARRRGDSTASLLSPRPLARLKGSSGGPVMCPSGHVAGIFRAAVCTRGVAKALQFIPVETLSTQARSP

SMILES | Ki ([1]; Table 1) | Ki ([1]; Table 3) | Ki (Fold change) GT1a D168A NS3/4A Protease [2] | Ki ([3]; Table 1) | Ki ([3]; Table 3) | EC50 [4, 10] | EC50 [4, 11] | Replicon EC50 (Fold change) D168V [4] | EC50 [5, 12] | EC50 [5, 13] | Replicon EC50 (Fold change) A156T [5] | EC50 [6, 14] | EC50 [6, 15] | Replicon EC50 (Fold change) R155K [6] | EC50 [7, 16] | EC50 [7, 17] | Replicon EC50 (Fold change) D168A [7] | Ki [8] | Ki (Fold change) GT3a NS3/4A Protease [8] | EC50 [9, 18] | also measured
CCc1nc2ccc(OC)cc2nc1O[C@@H]1C[C@H]2C(=O)N[C@]3(C(=O)NS(=O)(=O)C4(C)CC4)C[C@H]3/C=C\CCCCC[C@H](NC(=O)OC3CCCC3)C(=O)N2C1 [Compound 23a, Cyclopentyl ((2R,6S,13aS,14aR,16aS,Z)-2-((3-ethyl-7-methoxyquinoxalin-2-yl)oxy)-14a-(((1-methylcyclopropyl)sulfonyl)carbamoyl)-5,16-dioxo-1,2,3,5,6,7,8,9,10,11,13a,14,14a,15,16,16a-hexadecahydrocyclopropa[e]pyrrolo[1,2-a][1,4]diazacyclopentadecin-6-yl)carbamate] | 55.2 nM | 55.2 ± 5.3 nM | (40) fold | 1.37 nM | 1.37 nM | 7.08 nM | 7.08 nM | (44) fold | 10.6 nM | 10.6 nM | (66) fold | 2.07 nM | 2.07 nM | (13) fold | 3.45 nM | 3.45 nM | (22) fold | 186 nM | (136) fold | 0.16 nM | EC50 ([9]; Huh-7, Table 4): 0.16 nM
COc1ccc2nc(Cl)c(O[C@@H]3C[C@H]4C(=O)N[C@]5(C(=O)NS(=O)(=O)C6(C)CC6)C[C@H]5/C=C\CCCCC[C@H](NC(=O)OC5CCCC5)C(=O)N4C3)nc2c1 [Compound 23c, Cyclopentyl ((2R,6S,13aS,14aR,16aS,Z)-2-((3-chloro-7-methoxyquinoxalin-2-yl)oxy)-14a-(((1-methylcyclopropyl)sulfonyl)carbamoyl)-5,16-dioxo-1,2,3,5,6,7,8,9,10,11,13a,14,14a,15,16,16a-hexadecahydrocyclopropa[e]pyrrolo[1,2-a][1,4]diazacyclopentadecin-6-yl)carbamate] | 25.7 nM | 25.7 ± 1.8 nM | (58) fold | 0.44 nM | 0.44 nM | 1.09 nM | 1.09 nM | (7) fold | 4.32 nM | 4.32 nM | (29) fold | 0.56 nM | 0.56 nM | (4) fold | 0.97 nM | 0.97 nM | (6) fold | 61 nM | (139) fold | 0.15 nM | EC50 ([9]; Huh-7, Table 4): 0.15 nM
COc1ccc2nc(C(F)(F)F)c(O[C@@H]3C[C@H]4C(=O)N[C@]5(C(=O)NS(=O)(=O)C6(C)CC6)C[C@H]5/C=C\CCCCC[C@H](NC(=O)OC5CCCC5)C(=O)N4C3)nc2c1 [Compound 23d, Cyclopentyl ((2R,6S,13aS,14aR,16aS,Z)-2-((7-methoxy-3-(trifluoromethyl)quinoxalin-2-yl)oxy)-14a-(((1-methylcyclopropyl)sulfonyl)carbamoyl)-5,16-dioxo-1,2,3,5,6,7,8,9,10,11,13a,14,14a,15,16,16a-hexadecahydrocyclopropa[e]pyrrolo[1,2-a][1,4]diazacyclopentadecin-6-yl)carbamate] | 110 nM | 110 ± 14 nM | (14) fold | 8.14 nM | 8.14 nM | 11.4 nM | 11.4 nM | (3) fold | 75.9 nM | 75.9 nM | (19) fold | 6.9 nM | 6.9 nM | (2) fold | 8.46 nM | 8.46 nM | (2) fold | 433 nM | (53) fold | 4.04 nM | EC50 ([9]; Huh-7, Table 4): 4.04 nM

— patent US11472778B2, “Hepatitis C virus NS3/4A protease inhibitors” (priority 2017, dated 2022)
